# Biological target: T1, human mAChR M4 (Homo sapiens, UniProt P08173)
# T1 construct: expressed in transfected cells; host or cells: CHO-K1 (ATCC), stably co-expressing chimeric G protein Gqi5
# T1 sequence (P08173 1-479): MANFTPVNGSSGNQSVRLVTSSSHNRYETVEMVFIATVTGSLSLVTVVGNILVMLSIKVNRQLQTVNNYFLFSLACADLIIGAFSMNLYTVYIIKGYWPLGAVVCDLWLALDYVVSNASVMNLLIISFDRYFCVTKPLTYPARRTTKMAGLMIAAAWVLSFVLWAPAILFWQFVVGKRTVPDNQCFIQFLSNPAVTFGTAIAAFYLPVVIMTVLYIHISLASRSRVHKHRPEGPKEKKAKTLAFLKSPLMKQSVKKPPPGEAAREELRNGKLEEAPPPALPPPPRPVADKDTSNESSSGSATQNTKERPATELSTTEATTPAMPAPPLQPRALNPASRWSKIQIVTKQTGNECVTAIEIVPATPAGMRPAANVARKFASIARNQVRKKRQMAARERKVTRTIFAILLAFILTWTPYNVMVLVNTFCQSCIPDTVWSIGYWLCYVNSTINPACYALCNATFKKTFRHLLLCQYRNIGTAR
# Assay: mAChR M4 cell-based functional assay (calcium mobilization, EC80 acetylcholine), human M4
# Conditions: for Emin: human M4, % ACh maximum at 30 μM
# How it was run: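 CHO-K1 cells stably expressing human M4 with chimeric Gqi5; intracellular calcium rise read on FDSS as fluorescence static ratio at 1 Hz. Compounds in 10-point 1:3 dilution series; IC50 taken as concentration-dependent decrease of the EC80 acetylcholine response, four-parameter logistic fit.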
# [1] = Table 10, M4/Gqi5/CHO-K1 cells, decrease of EC80 acetylcholine response
# [2] = Table 9, M4/Gqi5/CHO-K1 cells, decrease of EC80 acetylcholine response
Human M4 Emin (Table 10) [%],IC50 [1] [µM],IC50 [2] [µM],Emin (Table 9) [%],"IC50 (Table 9, μM) [µM]",Compound
6,0.00399,,,,"Cc1ccc(-c2ccc(N[C@H]3C[C@@H]4CN(CC5CCOCC5)C[C@@H]4C3)nn2)cc1 [Compound 198, (3aR,5s,6aS)-N-[6-(p-tolyl)pyridazin-3-yl]-2-(tetrahydropyran-4-ylmethyl)-3,3a,4,5,6,6a-hexahydro-1H-cyclopenta[c]pyrrol-5-amine]"
,,0.0006,4.99,,"Cc1nn(C)cc1-c1ccc(N[C@H]2C[C@@H]3CN(CCC(C)(C)C)C[C@@H]3C2)nn1 [Compound 3, (3aR,5s,6aS)-2-(3,3-dimethylbutyl)-N-[6-(1,3-dimethylpyrazol-4-yl)pyridazin-3-yl]-3,3a,4,5,6,6a-hexahydro-1H-cyclopenta[c]pyrrol-5-amine]"
,,0.583,4.62,,"CCC(C)CN1C[C@H]2CC(COc3ccc(-c4cc(F)ccc4Cl)nn3)C[C@H]2C1 (stereo partly drawn) [Compound 109, (3aR,6aS)-5-[[6-(2-chloro-5-fluoro-phenyl)pyridazin-3-yl]oxymethyl]-2-(2-methylbutyl)-3,3a,4,5,6,6a-hexahydro-1H-cyclopenta[c]pyrrole]"
,,0.0034,6.1,,"Cc1cccnc1CN1C[C@H]2C[C@H](Nc3ccc(-c4cc(F)ccc4Cl)nn3)C[C@H]2C1 [Compound 35, (3aR,5s,6aS)-N-[6-(2-chloro-5-fluoro-phenyl)pyridazin-3-yl]-2-[(3-methyl-2-pyridyl)methyl]-3,3a,4,5,6,6a-hexahydro-1H-cyclopenta[c]pyrrol-5-amine]"
8,0.00117,,,,"CC(=O)Nc1ccc(-c2ccc(N[C@H]3C[C@@H]4CN(CC5CCOCC5)C[C@@H]4C3)nn2)cc1 [Compound 180, N-[4-[6-[[(3aR,5s,6aS)-2-(tetrahydropyran-4-ylmethyl)-3,3a,4,5,6,6a-hexahydro-1H-cyclopenta[c]pyrrol-5-yl]amino]pyridazin-3-yl]phenyl]acetamide]"
8,0.00207,,,,"FC1(F)CCN(c2ccc(N[C@H]3C[C@@H]4CN(CC5CCOCC5)C[C@@H]4C3)nn2)C1 [Compound 189, (3aR,5s,6aS)-N-[6-(3,3-difluoropyrrolidin-1-yl)pyridazin-3-yl]-2-(tetrahydropyran-4-ylmethyl)-3,3a,4,5,6,6a-hexahydro-1H-cyclopenta[c]pyrrol-5-amine]"
,,0.118,3.85,,"Cc1cnn(C)c1-c1ccc(N[C@H]2C[C@@H]3CN(Cc4ccccc4)C[C@@H]3C2)nn1 [Compound 23, (3aR,5s,6aS)-2-benzyl-N-[6-(2,4-dimethylpyrazol-3-yl)pyridazin-3-yl]-3,3a,4,5,6,6a-hexahydro-1H-cyclopenta[c]pyrrol-5-amine]"
5,0.0541,,,,"Fc1ccc(Cl)c(-c2ccc(N[C@H]3C[C@@H]4CN(Cc5cccnc5)C[C@@H]4C3)nn2)c1 [Compound 161, (3aR,5s,6aS)-N-[6-(2-chloro-5-fluoro-phenyl)pyridazin-3-yl]-2-(3-pyridylmethyl)-3,3a,4,5,6,6a-hexahydro-1H-cyclopenta[c]pyrrol-5-amine]"
,,,58.2,> 10,"[(3aR,5r,6aS)-5-[6-(1,3-dimethylpyrazol-4-yl)pyridazin-3-yl]oxy-3,3a,4,5,6,6a-hexahydro-1H-cyclopenta[c]pyrrol-2-yl]-(1-adamantyl)methanone [Compound 60]"
,,0.0006,,,Cc1nn(C)cc1-c1ccc(N[C@H]2C[C@@H]3CN(Cc4ccc5c(c4)OCO5)C[C@@H]3C2)nn1 [compound 15]
,,0.0945,3.08,,"Cc1nn(C)cc1-c1ccc(O[C@@H]2C[C@@H]3CN(CC4CC5C=CC4C5)C[C@@H]3C2)nn1 (stereo partly drawn) [Compound 47, (3aR,5r,6aS)-2-(5-bicyclo[2.2.1]hept-2-enylmethyl)-5-[6-(1,3-dimethylpyrazol-4-yl)pyridazin-3-yl]oxy-3,3a,4,5,6,6a-hexahydro-1H-cyclopenta[c]pyrrole]"
,,0.0114,3.33,,"Cc1nn(C)cc1-c1ccc(N[C@H]2C[C@@H]3CN(CC4CCCOC4)C[C@@H]3C2)nn1 (stereo partly drawn) [Compound 6, (3aR,5s,6aS)-N-[6-(1,3-dimethylpyrazol-4-yl)pyridazin-3-yl]-2-(tetrahydropyran-3-ylmethyl)-3,3a,4,5,6,6a-hexahydro-1H-cyclopenta[c]pyrrol-5-amine]"
,,2.23,8.70,,"Cc1nn(C)cc1-c1ccc(OCC2C[C@@H]3CN(CC4CCOCC4)C[C@@H]3C2)nn1 (stereo partly drawn) [Compound 98, (3aR,6aS)-5-[[6-(1,3-dimethylpyrazol-4-yl)pyridazin-3-yl]oxymethyl]-2-(tetrahydropyran-4-ylmethyl)-3,3a,4,5,6,6a-hexahydro-1H-cyclopenta[c]pyrrole]"
5,0.405,,,,"Cc1cnn(C)c1-c1ccc(NC(=O)[C@@H]2C[C@@H]3CN(CCC(C)(C)C)C[C@@H]3C2)nn1 [Compound 144, (3aR,5r,6aS)-2-(3,3-dimethylbutyl)-N-[6-(2,4-dimethylpyrazol-3-yl)pyridazin-3-yl]-3,3a,4,5,6,6a-hexahydro-1H-cyclopenta[c]pyrrole-5-carboxamide]"
,,0.167,4.44,,"Cc1nn(C)cc1-c1ccc(OCC2C[C@@H]3CN(CC4CCCCC4)C[C@@H]3C2)nn1 (stereo partly drawn) [Compound 97, (3aR,6aS)-2-(cyclohexylmethyl)-5-[[6-(1,3-dimethylpyrazol-4-yl)pyridazin-3-yl]oxymethyl]-3,3a,4,5,6,6a-hexahydro-1H-cyclopenta[c]pyrrole]"
,,1.09,5.03,,"Fc1ccc(Cl)c(-c2ccc(OCC3C[C@@H]4CN(CC56CC7CC(CC(C7)C5)C6)C[C@@H]4C3)nn2)c1 (stereo partly drawn) [Compound 107, (3aR,6aS)-2-(1-adamantylmethyl)-5-[[6-(2-chloro-5-fluoro-phenyl)pyridazin-3-yl]oxymethyl]-3,3a,4,5,6,6a-hexahydro-1H-cyclopenta[c]pyrrole]"
,,4.19,9.57,,"Cc1cnn(C)c1-c1ccc(OCC2C[C@@H]3CN(Cc4ccc(F)cc4)C[C@@H]3C2)nn1 (stereo partly drawn) [Compound 88, (3R,6aS)-5-[[6-(2,4-dimethylpyrazol-3-yl)pyridazin-3-yl]oxymethyl]-2-[(4-fluorophenyl)methyl]-3,3a,4,5,6,6a-hexahydro-1H-cyclopenta[c]pyrrole]"
,,3.09,10.9,,"Cc1cnn(C)c1-c1ccc(OCC2C[C@@H]3CN(CC4CCOCC4)C[C@@H]3C2)nn1 (stereo partly drawn) [Compound 84, (3aR,6aS)-5-[[6-(2,4-dimethylpyrazol-3-yl)pyridazin-3-yl]oxymethyl]-2-(tetrahydropyran-4-ylmethyl)-3,3a,4,5,6,6a-hexahydro-1H-cyclopenta[c]pyrrole]"
4,0.00142,,,,"c1cnc2ccc(-c3ccc(N[C@H]4C[C@@H]5CN(CC6CCOCC6)C[C@@H]5C4)nn3)cc2c1 [Compound 181, (3aR,5s,6aS)-N-[6-(6-quinolyl)pyridazin-3-yl]-2-(tetrahydropyran-4-ylmethyl)-3,3a,4,5,6,6a-hexahydro-1H-cyclopenta[c]pyrrol-5-amine]"
,,0.143,3.60,,"CC(C)(C)CCN1C[C@H]2CC(COc3ccc(-c4cc(F)ccc4Cl)nn3)C[C@H]2C1 (stereo partly drawn) [Compound 106, (3aR,6aS)-5-[[6-(2-chloro-5-fluoro-phenyl)pyridazin-3-yl]oxymethyl]-2-(3,3-dimethylbutyl)-3,3a,4,5,6,6a-hexahydro-1H-cyclopenta[c]pyrrole]"
,,0.0258,5.65,,"Cc1nn(C)cc1-c1ccc(N[C@H]2C[C@@H]3CN(CC45CC6CC(CC(C6)C4)C5)C[C@@H]3C2)nn1 [Compound 37, (3aR,5s,6aS)-2-(1-adamantylmethyl)-N-[6-(1,3-dimethylpyrazol-4-yl)pyridazin-3-yl]-3,3a,4,5,6,6a-hexahydro-1H-cyclopenta[c]pyrrol-5-amine]"
4,0.00911,,,,"F[C@H]1CCN(c2ccc(N[C@H]3C[C@@H]4CN(CC5CCOCC5)C[C@@H]4C3)nn2)C1 [Compound 195, (3aR,5s,6aS)-N-[6-[(3R)-3-fluoropyrrolidin-1-yl]pyridazin-3-yl]-2-(tetrahydropyran-4-ylmethyl)-3,3a,4,5,6,6a-hexahydro-1H-cyclopenta[c]pyrrol-5-amine]"
,,0.0146,6.22,,"Fc1ccc(Cl)c(-c2ccc(N[C@H]3C[C@@H]4CN(Cc5ccccc5F)C[C@@H]4C3)nn2)c1 [Compound 36, (3aR,5s,6aS)-N-[6-(2-chloro-5-fluoro-phenyl)pyridazin-3-yl]-2-[(2-fluorophenyl)methyl]-3,3a,4,5,6,6a-hexahydro-1H-cyclopenta[c]pyrrol-5-amine]"
,,6.03,15.6,,"Cc1nn(C)cc1-c1ccc(O[C@@H]2C[C@@H]3CN(CC4CCOCC4)C[C@@H]3C2)nn1 [Compound 50, (3aR,5r,6aS)-5-[6-(1,3-dimethylpyrazol-4-yl)pyridazin-3-yl]oxy-2-(tetrahydropyran-4-ylmethyl)-3,3a,4,5,6,6a-hexahydro-1H-cyclopenta[c]pyrrole]"

# From US12577234B2, “Antagonists of the muscarinic acetylcholine receptor M4” (Vanderbilt University, priority 2017, dated 2026)
